Assays:
[1] = tested on: SDMA signal (PRMT5 inhibition) in HCT116 MTAP-deleted cells; test: Symmetric di-methyl arginine image-based high content screen assay (SDMA assay), HCT116 MTAP-deleted; type: cell-based; settings: SDMA assay; for EC50: Homo sapiens, HCT-116, 72 h, 3 days of treatment, cell line not given, taken as HCT116 MTAP-deleted, read-out: EC50 (SDMA assay); for EC50 selectivity (SDMA assay): taken as HCT116 WT versus MTAP-deleted
Method in brief: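 HCT116 MTAP-deleted cells treated with compound until Day 3, then formalin-fixed, permeabilized and immunostained for SDMA, with DAPI nuclear counterstain. Imaged by high-content microscopy; SDMA read-out is mean Alexa 488 intensity per DAPI-defined cell, reflecting PRMT5 inhibition.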

[2] = tested on: HCT116 MTAP-deleted cells; test: Cell viability assay (CellTiter-Glo, 7 days), HCT116 MTAP-deleted; settings: Homo sapiens, HCT-116, 168 h

EC50 [1] [nM] | EC50 selectivity (SDMA assay) [1] | Compound | CC50 [2] [nM]
< 1 | 16 | CCN(C(=O)C1CC1)N(Cc1ccc(C(F)(F)F)cn1)C(=O)c1cc2c(cc1F)nc(N)c1cnn(C)c12 [Example 286, 4-amino-N′-(cyclopropanecarbonyl)-N′-ethyl-7-fluoro-1-methyl-N-((5-(trifluoromethyl)pyridin-2-yl)methyl)-1H-pyrazolo[4,3-c]quinoline-8-carbohydrazide] | < 100
1 to 5 | 174 | CCC(=O)N(CC)N(Cc1ccc(C(F)(F)F)cn1)C(=O)c1ccc2nc(N)c3cnn(C)c3c2c1 [Example 287, 4-amino-N′-ethyl-1-methyl-N′-propionyl-N-((5-(trifluoromethyl)pyridin-2-yl)methyl)-1H-pyrazolo[4,3-c]quinoline-8-carbohydrazide] | < 100
< 1 | 267 | CCN(C(=O)C1CC1)N(Cc1ccc(C(F)(F)F)cn1)C(=O)c1ccc2nc(N)c3cnn(C)c3c2c1 [Example 288, 4-amino-N′-(cyclopropanecarbonyl)-N′-ethyl-1-methyl-N-((5-(trifluoromethyl)pyridin-2-yl)methyl)-1H-pyrazolo[4,3-c]quinoline-8-carbohydrazide] | < 100
1 to 5 | 155 | CC(=O)N(C)N(Cc1cccc2c1nnn2C)C(=O)c1ccc2nc(N)c3cnn(C)c3c2c1 [Example 289, N′-acetyl-4-amino-N′,1-dimethyl-N-((1-methyl-1H-benzo[d][1,2,3]triazol-4-yl)methyl)-1H-pyrazolo[4,3-c]quinoline-8-carbohydrazide] | 100 to 1000
1 to 5 | 80 | Cn1ncc2c(N)nc3ccc(C(=O)N(Cc4ccc(C(F)(F)F)cn4)N4CCOCC4(C)C)cc3c21 [Example 292, 4-amino-N-(3,3-dimethylmorpholino)-1-methyl-N-((5-(trifluoromethyl)pyridin-2-yl)methyl)-1H-pyrazolo[4,3-c]quinoline-8-carboxamide] | 100 to 1000
< 1 | 9 | C[C@@H]1CN(N(Cc2ccc(C(F)(F)F)cn2)C(=O)c2cc3c(cc2F)nc(N)c2cnn(C)c23)C[C@H](C)O1 [Example 293, 4-amino-N-((2S,6R)-2,6-dimethylmorpholino)-7-fluoro-1-methyl-N-((5-(trifluoromethyl)pyridin-2-yl)methyl)-1H-pyrazolo[4,3-c]quinoline-8-carboxamide] | < 100
< 1 | 97 | Cn1ncc2c(N)nc3cc(F)c(C(=O)N(Cc4ccc(C(F)(F)F)cn4)NC(=O)C4(F)CC4)cc3c21 [Example 294, 4-amino-7-fluoro-N′-(1-fluorocyclopropane-1-carbonyl)-1-methyl-N-((5-(trifluoromethyl)pyridin-2-yl)methyl)-1H-pyrazolo[4,3-c]quinoline-8-carbohydrazide] | < 100
< 1 | 18 | Cn1ncc2c(N)nc3ccc(C(=O)N(Cc4ccc(C(F)(F)F)cn4)n4ccc5cccnc54)cc3c21 [Example 295, 4-amino-1-methyl-N-(1H-pyrrolo[2,3-b]pyridin-1-yl)-N-((5-(trifluoromethyl)pyridin-2-yl)methyl)-1H-pyrazolo[4,3-c]quinoline-8-carboxamide] | < 100
< 1 | 27 | Cn1ncc2c(N)nc3cc(F)c(C(=O)N(Cc4ccc(C(F)(F)F)cn4)n4ccc5cccnc54)cc3c21 [Example 296, 4-amino-7-fluoro-1-methyl-N-(1H-pyrrolo[2,3-b]pyridin-1-yl)-N-((5-(trifluoromethyl)pyridin-2-yl)methyl)-1H-pyrazolo[4,3-c]quinoline-8-carboxamide] | < 100
1 to 5 | 151 | Cn1ncc2c(N)nc3ccc(C(=O)N(Cc4ccc(C(F)(F)F)cn4)N4C[C@@H]5C[C@H]4CO5)cc3c21 [Example 297, 4-amino-N-((1S,4S)-2-oxa-5-azabicyclo[2.2.1]heptan-5-yl)-1-methyl-N-((5-(trifluoromethyl)pyridin-2-yl)methyl)-1H-pyrazolo[4,3-c]quinoline-8-carboxamide] | 100 to 1000
< 1 | 23 | Cn1ncc2c(N)nc3cc(F)c(C(=O)N(Cc4ccc(C(F)(F)F)cn4)N4C[C@@H]5C[C@H]4CO5)cc3c21 [Example 298, 4-amino-N-((1S,4S)-2-oxa-5-azabicyclo[2.2.1]heptan-5-yl)-7-fluoro-1-methyl-N-((5-(trifluoromethyl)pyridin-2-yl)methyl)-1H-pyrazolo[4,3-c]quinoline-8-carboxamide] | < 100
< 1 | 144 | Cn1ncc2c(N)nc3ccc(C(=O)N(Cc4ccc(C(F)(F)F)cn4)N4C[C@H]5C[C@@H]4CO5)cc3c21 [Example 299, 4-amino-N-((1R,4R)-2-oxa-5-azabicyclo[2.2.1]heptan-5-yl)-1-methyl-N-((5-(trifluoromethyl)pyridin-2-yl)methyl)-1H-pyrazolo[4,3-c]quinoline-8-carboxamide] | < 100
< 1 | 24 | Cn1ncc2c(N)nc3cc(F)c(C(=O)N(Cc4ccc(C(F)(F)F)cn4)N4C[C@H]5C[C@@H]4CO5)cc3c21 [Example 300, 4-amino-N-((1R,4R)-2-oxa-5-azabicyclo[2.2.1]heptan-5-yl)-7-fluoro-1-methyl-N-((5-(trifluoromethyl)pyridin-2-yl)methyl)-1H-pyrazolo[4,3-c]quinoline-8-carboxamide] | < 100
< 1 | 106 | CC(=O)N(C)N(Cc1cccc2c1OC(F)(F)O2)C(=O)c1cc2c(cc1F)nc(N)c1cnn(C)c12 [Example 301, N′-acetyl-4-amino-N-((2,2-difluorobenzo[d][1,3]dioxol-4-yl)methyl)-7-fluoro-N′,1-dimethyl-1H-pyrazolo[4,3-c]quinoline-8-carbohydrazide] | < 100
1 to 5 | 248 | CN(C(=O)C1CC1)N(Cc1cccc2c1OC(F)(F)O2)C(=O)c1ccc2nc(N)c3cnn(C)c3c2c1 [Example 302, 4-amino-N′-(cyclopropanecarbonyl)-N-((2,2-difluorobenzo[d][1,3]dioxol-4-yl)methyl)-N′,1-dimethyl-1H-pyrazolo[4,3-c]quinoline-8-carbohydrazide] | < 100
< 1 | 58 | CN(C(=O)C1CC1)N(Cc1cccc2c1OC(F)(F)O2)C(=O)c1cc2c(cc1F)nc(N)c1cnn(C)c12 [Example 303, 4-amino-N′-(cyclopropanecarbonyl)-N-((2,2-difluorobenzo[d][1,3]dioxol-4-yl)methyl)-7-fluoro-N′,1-dimethyl-1H-pyrazolo[4,3-c]quinoline-8-carbohydrazide] | < 100
1 to 5 | 15 | CN(C(=O)C1CC1)N(Cc1ccc(C(F)(F)F)cn1)C(=O)c1cc2c(cc1Cl)nc(N)c1cnn(C)c12 [Example 304, 4-amino-7-chloro-N′-(cyclopropanecarbonyl)-N′,1-dimethyl-N-((5-(trifluoromethyl)pyridin-2-yl)methyl)-1H-pyrazolo[4,3-c]quinoline-8-carbohydrazide] | < 100
< 1 | 75 | [2H]C1([2H])C([2H])([2H])C1([2H])C(=O)N(C)N(Cc1ccc(C(F)(F)F)cn1)C(=O)c1ccc2nc(N)c3cnn(C)c3c2c1 [Example 305, 4-amino-N′-(cyclopropane-1-carbonyl-d5)-N′,1-dimethyl-N-((5-(trifluoromethyl)pyridin-2-yl)methyl)-1H-pyrazolo[4,3-c]quinoline-8-carbohydrazide] | < 100
< 1 | 359 | CC(=O)N(C)N(Cc1cccc2c1OC(F)(F)O2)C(=O)c1ccc2nc(N)c3cnn(C)c3c2c1 [Example 307, N′-acetyl-4-amino-N-((2,2-difluorobenzo[d][1,3]dioxol-4-yl)methyl)-N′,1-dimethyl-1H-pyrazolo[4,3-c]quinoline-8-carbohydrazide] | < 100
< 1 | 122 | Cn1ncc2c(N)nc3ccc(C(=O)N(Cc4ccc(C(F)(F)F)cn4)NC(=O)C4(F)CC4)cc3c21 [Example 308, 4-amino-N′-(1-fluorocyclopropane-1-carbonyl)-1-methyl-N-((5-(trifluoromethyl)pyridin-2-yl)methyl)-1H-pyrazolo[4,3-c]quinoline-8-carbohydrazide] | < 100
1 to 5 | 52 | Cn1ncc2c(N)nc3cc(F)c(C(=O)N(Cc4ccc(C(F)(F)F)cn4)N4C[C@H]5CC[C@@H](C4)O5)cc3c21 [Example 309, 4-amino-N-((1R,5S)-8-oxa-3-azabicyclo[3.2.1]octan-3-yl)-7-fluoro-1-methyl-N-((5-(trifluoromethyl)pyridin-2-yl)methyl)-1H-pyrazolo[4,3-c]quinoline-8-carboxamide] | < 100
< 1 | 132 | C[C@@H]1CN(N(Cc2ccc(C(F)(F)F)cn2)C(=O)c2ccc3nc(N)c4cnn(C)c4c3c2)C[C@H](C)O1 [Example 310, 4-amino-N-((2S,6R)-2,6-dimethylmorpholino)-1-methyl-N-((5-(trifluoromethyl)pyridin-2-yl)methyl)-1H-pyrazolo[4,3-c]quinoline-8-carboxamide] | < 100

Source: patent publication US20240254118A1, “PRMT5 INHIBITORS AND USES THEREOF” (Gilead Sciences, Inc., priority 2022, published 2024)
